Experimental data as given in ChEMBL document CHEMBL4825749, “Pyrimidine-2,4-dione targets STAT3 signaling pathway to induce cytotoxicity in hepatocellular carcinoma cells” (Bioorg Med Chem Lett, 2021).
Blank lines part the entries; values can stand above or below the compound they belong to. Activity calls are given as the source filed them. The calls are words filed in the database; no cut-off is given here.

How the values were obtained:
HepG2 [1] = assay: Cytotoxicity against human HepG2 cells assessed as reduction in cell viability measured upto 72 hrs by MTT assay; format: functional, cell-based; details: HepG2, 72 h
[2] = Cytotoxicity against human HCCLM3 cells assessed as reduction in cell viability measured upto 72 hrs by MTT assay; format: functional, cell-based; details: HCCLM3, 72 h
HepG2 [3] = assay: Cytotoxicity against human HepG2 cells assessed as cell viability up to 50 uM measured upto 72 hrs by MTT assay; format: functional, cell-based; details: dose microM <=50, time hrs <=72
HCCLM3 [4] = assay: Cytotoxicity against human HCCLM3 cells assessed as cell viability up to 50 uM measured upto 72 hrs by MTT assay; format: functional, cell-based; details: dose microM <=50, time hrs <=72
L02 = assay: Cytotoxicity against human L02 cells assessed as cell viability measured by MTT assay; format: cell-based
[5] = target: Signal transducer and activator of transcription 3 (Homo sapiens) (UniProt P40763); assay: Inhibition of STAT3 activation in human HepG2 cells assessed as decrease in STAT3 phosphorylation at Y705 residue at 25 uM by Western blot analysis; format: cell-based; details: time hrs <=12, TDE = time-dependent effect
Signal transducer and activator of transcription 3 (Homo sapiens), sequence (P40763 whole entry): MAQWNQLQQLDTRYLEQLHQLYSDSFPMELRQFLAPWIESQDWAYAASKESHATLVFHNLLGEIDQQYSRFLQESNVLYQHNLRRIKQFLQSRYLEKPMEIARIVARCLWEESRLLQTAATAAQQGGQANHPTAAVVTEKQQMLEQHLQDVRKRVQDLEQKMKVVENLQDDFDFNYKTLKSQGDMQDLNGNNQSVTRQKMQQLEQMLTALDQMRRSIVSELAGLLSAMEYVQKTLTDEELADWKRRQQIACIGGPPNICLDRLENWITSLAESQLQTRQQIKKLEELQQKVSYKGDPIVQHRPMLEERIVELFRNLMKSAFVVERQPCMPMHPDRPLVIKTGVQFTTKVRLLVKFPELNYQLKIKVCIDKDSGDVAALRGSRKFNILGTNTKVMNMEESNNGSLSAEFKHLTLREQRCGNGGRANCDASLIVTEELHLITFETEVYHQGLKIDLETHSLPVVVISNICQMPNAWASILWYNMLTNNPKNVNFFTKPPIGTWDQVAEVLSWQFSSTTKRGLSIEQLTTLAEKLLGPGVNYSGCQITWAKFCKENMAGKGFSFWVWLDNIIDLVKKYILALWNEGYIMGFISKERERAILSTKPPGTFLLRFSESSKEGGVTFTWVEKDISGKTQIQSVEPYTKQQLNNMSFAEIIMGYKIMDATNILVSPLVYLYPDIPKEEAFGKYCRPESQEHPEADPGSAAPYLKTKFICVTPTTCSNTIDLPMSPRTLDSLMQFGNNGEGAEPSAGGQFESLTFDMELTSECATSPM

[6] = target: Signal transducer and activator of transcription 3 (Homo sapiens) (UniProt P40763); assay: Inhibition of STAT3 activation in human HCCLM3 cells assessed as decrease in STAT3 phosphorylation at Y705 residue at 25 uM by Western blot analysis; format: cell-based; details: time hrs <=12, TDE = time-dependent effect
[7] = target: T1, Signal transducer and activator of transcription 5A (Homo sapiens) (UniProt P42229); assay: […] in human HepG2 cells assessed as decrease in STAT3 phosphorylation at Y694 residue at 25 uM by Western blot analysis; format: cell-based
T1 sequence (whole entry): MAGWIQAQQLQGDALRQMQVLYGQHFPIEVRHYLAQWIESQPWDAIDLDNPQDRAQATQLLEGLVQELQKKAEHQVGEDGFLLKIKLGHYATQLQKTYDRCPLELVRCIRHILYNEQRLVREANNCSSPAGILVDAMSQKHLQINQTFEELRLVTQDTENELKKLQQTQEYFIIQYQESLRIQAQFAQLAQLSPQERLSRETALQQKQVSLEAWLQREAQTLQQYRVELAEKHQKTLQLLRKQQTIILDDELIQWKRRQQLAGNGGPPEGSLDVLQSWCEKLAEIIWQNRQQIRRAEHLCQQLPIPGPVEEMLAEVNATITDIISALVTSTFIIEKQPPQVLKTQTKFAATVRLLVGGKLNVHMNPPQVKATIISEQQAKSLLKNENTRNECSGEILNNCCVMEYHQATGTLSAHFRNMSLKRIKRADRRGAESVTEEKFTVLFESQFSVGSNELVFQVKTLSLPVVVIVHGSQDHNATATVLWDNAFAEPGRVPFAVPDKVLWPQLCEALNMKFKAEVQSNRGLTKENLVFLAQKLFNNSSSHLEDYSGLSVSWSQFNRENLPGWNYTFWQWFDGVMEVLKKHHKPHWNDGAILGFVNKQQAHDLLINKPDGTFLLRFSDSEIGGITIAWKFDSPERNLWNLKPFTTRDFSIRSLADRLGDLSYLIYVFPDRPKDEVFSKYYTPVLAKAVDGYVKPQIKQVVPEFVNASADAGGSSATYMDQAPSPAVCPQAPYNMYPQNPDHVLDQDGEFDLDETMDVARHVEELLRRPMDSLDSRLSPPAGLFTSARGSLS

[8] = target: T1, Signal transducer and activator of transcription 5A (Homo sapiens); assay: […] in human HCCLM3 cells assessed as decrease in STAT3 phosphorylation at Y694 residue at 25 uM by Western blot analysis; format: cell-based
[9] = target: Signal transducer and activator of transcription 3 (Homo sapiens) (UniProt P40763); assay: Inhibition of STAT3 in human HepG2 cell lysate assessed as suppression of STAT3-DNA interaction at 25 uM by ELISA; format: subcellular; details: time hrs <=12, TDE = time-dependent effect
[10] = target: Signal transducer and activator of transcription 3 (Homo sapiens) (UniProt P40763); assay: Inhibition of STAT3 in human HCCLM3 cell lysate assessed as suppression of STAT3-DNA interaction at 25 uM by ELISA; format: subcellular; details: time hrs <=12, TDE = time-dependent effect
HepG2 [11] = assay: Induction of cell cycle arrest in human HepG2 cells assessed as accumulation sub-G1 phase at 50 uM incubated for 24 hrs by propidium iodide staining based flow cytometry analysis relative to control; format: functional
HepG2 [12] = assay: Induction of cell cycle arrest in human HepG2 cells assessed as accumulation sub-G1 phase at 50 uM incubated for 48 hrs by propidium iodide staining based flow cytometry analysis relative to control; format: functional
HCCLM3 [13] = assay: Induction of apoptosis in human HCCLM3 cells assessed as decrease in Bcl2 expression at 25 uM by measured up to 48 hrs Western blot analysis; format: functional, cell-based; details: time hrs <=48
HCCLM3 [14] = assay: Induction of apoptosis in human HCCLM3 cells assessed as decrease in Survivin expression at 25 uM by measured up to 48 hrs Western blot analysis; format: functional, cell-based; details: time hrs <=48
HCCLM3 [15] = assay: Induction of apoptosis in human HCCLM3 cells assessed as decrease in Cyclin D1 expression at 25 uM by measured up to 48 hrs Western blot analysis; format: functional, cell-based; details: time hrs <=48
HCCLM3 [16] = assay: Induction of apoptosis in human HCCLM3 cells assessed as increase in Cleaved caspase-3 expression at 25 uM by measured up to 48 hrs Western blot analysis; format: functional, cell-based; details: time hrs <=48
HepG2 [17] = assay: Antimigratory activity against human HepG2 cells assessed as inhibition of cell migration at 50 uM; format: functional, cell-based
HCCLM3 [18] = assay: Antimigratory activity against human HCCLM3 cells assessed as inhibition of cell migration at 50 uM; format: functional, cell-based
HepG2 [19] = assay: Induction of cell cycle arrest in human HepG2 cells assessed as accumulation sub-G1 phase at 50 uM incubated for 72 hrs by propidium iodide staining based flow cytometry analysis relative to control; format: functional
HepG2 [20] = assay: Antimigratory activity against human HepG2 cells assessed as inhibition of cell migration at 50 uM in presence of CXCL12; format: functional, cell-based
HCCLM3 [21] = assay: Antimigratory activity against human HCCLM3 cells assessed as inhibition of cell migration at 50 uM in presence of CXCL12; format: functional, cell-based
HepG2 [22] = assay: Antiinvasive activity in human HepG2 cells at 50 nM incubated for 8 hrs in presence of CXCL12 by crystal violet staining based assay; format: functional, cell-based
HCCLM3 [23] = assay: Antiinvasive activity in human HCCLM3 cells at 50 nM incubated for 8 hrs in presence of CXCL12 by crystal violet staining based assay; format: functional, cell-based
[24] = Induction of cell cycle arrest in human HCCLM3 cells assessed as accumulation sub-G1 phase at 50 uM incubated for 24 hrs by propidium iodide staining based flow cytometry analysis relative to control; format: functional
[25] = Induction of cell cycle arrest in human HCCLM3 cells assessed as accumulation sub-G1 phase at 50 uM incubated for 48 hrs by propidium iodide staining based flow cytometry analysis relative to control; format: functional
[26] = Induction of cell cycle arrest in human HCCLM3 cells assessed as accumulation sub-G1 phase at 50 uM incubated for 72 hrs by propidium iodide staining based flow cytometry analysis relative to control; format: functional

SMILES: CC(C)Oc1cccc(-c2cc(=O)n(C)c(=O)[nH]2)c1
IC50 (HepG2 [1]): 47.6 µM | IC50 [2]: 41.5 µM

SMILES: C[C@H](NC(=O)/C(C#N)=C/c1cccc(Br)n1)c1ccccc1
Activity (HepG2 [3]): Dose-Dependent Effect | Activity (HCCLM3 [4]): Dose-Dependent Effect

inhibition [5]: Tde | inhibition [6]: Tde | inhibition [7]: inactive | inhibition [8]: inactive | inhibition [9]: Tde | inhibition [10]: Tde
SMILES: Cn1c(=O)cc(-c2cccc3ccccc23)[nH]c1=O
IC50 (HepG2 [1]): 20.9 µM | IC50 [2]: 42.6 µM | Activity (HepG2 [3]): Dose-Dependent Effect | Activity (HCCLM3 [4]): Dose-Dependent Effect | Activity (L02): Toxic | Activity (HepG2 [11]): 39.3% | Activity (HepG2 [12]): 46.5% | Activity (HCCLM3 [13]): Active | Activity (HCCLM3 [14]): Active | Activity (HCCLM3 [15]): Active | Activity (HCCLM3 [16]): Active | Activity (HepG2 [17]): Active | Activity (HCCLM3 [18]): Active | Activity (HepG2 [19]): 67.3% | Activity (HepG2 [20]): Active | Activity (HCCLM3 [21]): Active | Activity (HepG2 [22]): Active | Activity (HCCLM3 [23]): Active | Activity [24]: 39.3% | Activity [25]: 46.5% | Activity [26]: 67.3%
